Measured values from publication PMC11596857 (Molecules, 2024).
Like-named read-outs stand apart in the source and are kept apart here.

Experiments:
[1] = target: T1, proline utilization A (SmPutA) (Sinorhizobium meliloti, UniProt F7X6I3); test: X-ray crystal structure ([…] Å); Ki from GSALDH activity inhibition; format: biochemical
T1 construct: gene putA; bifunctional PRODH-GSALDH enzyme, His tag removed
T1 sequence (F7X6I3 1-1233): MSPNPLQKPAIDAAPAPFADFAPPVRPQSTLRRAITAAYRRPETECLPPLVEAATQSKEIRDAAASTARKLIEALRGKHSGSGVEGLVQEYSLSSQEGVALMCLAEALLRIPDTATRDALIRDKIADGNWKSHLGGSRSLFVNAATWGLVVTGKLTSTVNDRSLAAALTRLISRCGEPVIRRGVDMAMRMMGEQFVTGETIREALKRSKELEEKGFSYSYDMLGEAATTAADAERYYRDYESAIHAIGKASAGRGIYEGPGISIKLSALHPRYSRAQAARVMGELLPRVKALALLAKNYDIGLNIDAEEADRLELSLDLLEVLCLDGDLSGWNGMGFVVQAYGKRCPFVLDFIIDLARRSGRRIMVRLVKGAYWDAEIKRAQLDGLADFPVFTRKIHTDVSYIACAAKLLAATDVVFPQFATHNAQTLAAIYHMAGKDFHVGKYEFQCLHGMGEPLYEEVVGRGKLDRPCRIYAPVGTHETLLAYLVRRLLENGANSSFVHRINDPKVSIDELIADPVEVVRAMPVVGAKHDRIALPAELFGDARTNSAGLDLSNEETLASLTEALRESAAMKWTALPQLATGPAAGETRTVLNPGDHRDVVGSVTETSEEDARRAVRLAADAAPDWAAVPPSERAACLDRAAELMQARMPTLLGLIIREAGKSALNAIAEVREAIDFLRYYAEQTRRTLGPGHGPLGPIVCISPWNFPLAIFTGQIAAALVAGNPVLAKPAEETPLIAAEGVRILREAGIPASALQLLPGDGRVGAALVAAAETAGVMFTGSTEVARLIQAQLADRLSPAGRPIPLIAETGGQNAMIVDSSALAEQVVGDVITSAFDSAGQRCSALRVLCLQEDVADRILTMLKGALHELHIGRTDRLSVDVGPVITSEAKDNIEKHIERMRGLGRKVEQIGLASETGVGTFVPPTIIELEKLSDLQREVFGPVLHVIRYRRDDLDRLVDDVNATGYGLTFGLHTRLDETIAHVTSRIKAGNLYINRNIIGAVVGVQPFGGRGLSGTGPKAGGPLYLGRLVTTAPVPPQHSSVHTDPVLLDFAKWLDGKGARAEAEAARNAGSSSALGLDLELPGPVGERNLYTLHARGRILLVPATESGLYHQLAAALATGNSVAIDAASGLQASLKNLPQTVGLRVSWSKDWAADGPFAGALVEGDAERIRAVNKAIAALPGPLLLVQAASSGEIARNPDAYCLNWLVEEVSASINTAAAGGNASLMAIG

[2] = target: T1, proline utilization A (SmPutA); test: as above; format: biochemical; remark: listed apart in the source

SMILES | Ki [1] | Ki [2]
O=C(O)c1cccc2c1OCCO2 [compound 7, 7] | 320 µM | 
O=C(O)C1CCCNC1 (racemic) [compound 13, 13] |  | 1500 µM
